Experimental data reported in ChEMBL document CHEMBL1141388, “2-Cyano-pyrimidines: a new chemotype for inhibitors of the cysteine protease cathepsin K” (J Med Chem, 2007).

Key:
[1] = Half life in rat at 4 uM/kg, iv and 10 uM/kg, po; type: ADME, organism-based; conditions: in vivo
[2] = target: Procathepsin L (Homo sapiens, UniProt P07711); test: Inhibition of human recombinant cathepsin L
[3] = target: Cathepsin S (Homo sapiens, UniProt P25774); test: Inhibition of human recombinant cathepsin S
Sequence of Cathepsin S (P25774 whole entry): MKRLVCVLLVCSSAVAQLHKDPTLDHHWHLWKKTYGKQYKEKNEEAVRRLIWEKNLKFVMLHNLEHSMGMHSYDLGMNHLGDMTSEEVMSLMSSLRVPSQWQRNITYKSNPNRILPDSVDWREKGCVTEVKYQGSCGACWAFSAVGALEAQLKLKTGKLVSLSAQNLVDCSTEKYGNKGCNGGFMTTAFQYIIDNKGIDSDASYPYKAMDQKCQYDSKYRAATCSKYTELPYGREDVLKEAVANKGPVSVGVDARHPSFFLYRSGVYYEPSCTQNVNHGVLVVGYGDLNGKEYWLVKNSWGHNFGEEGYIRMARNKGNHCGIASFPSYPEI

[4] = Clearance in rat at 4 uM/kg, iv and 10 uM/kg, po; type: ADME, organism-based; conditions: in vivo
[5] = target: T1, Cathepsin K (Homo sapiens, UniProt P43235); test: Inhibition of human recombinant cathepsin K
T1 sequence (P43235 whole entry): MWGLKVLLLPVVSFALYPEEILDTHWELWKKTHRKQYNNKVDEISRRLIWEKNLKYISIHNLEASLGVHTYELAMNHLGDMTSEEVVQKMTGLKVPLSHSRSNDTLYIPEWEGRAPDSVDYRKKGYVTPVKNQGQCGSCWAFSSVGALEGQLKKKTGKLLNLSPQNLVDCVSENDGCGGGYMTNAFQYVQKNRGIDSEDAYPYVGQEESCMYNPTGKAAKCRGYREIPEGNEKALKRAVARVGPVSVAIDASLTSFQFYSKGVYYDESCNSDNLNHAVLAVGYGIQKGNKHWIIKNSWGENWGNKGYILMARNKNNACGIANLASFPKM

Sequence of Procathepsin L (P07711 whole entry): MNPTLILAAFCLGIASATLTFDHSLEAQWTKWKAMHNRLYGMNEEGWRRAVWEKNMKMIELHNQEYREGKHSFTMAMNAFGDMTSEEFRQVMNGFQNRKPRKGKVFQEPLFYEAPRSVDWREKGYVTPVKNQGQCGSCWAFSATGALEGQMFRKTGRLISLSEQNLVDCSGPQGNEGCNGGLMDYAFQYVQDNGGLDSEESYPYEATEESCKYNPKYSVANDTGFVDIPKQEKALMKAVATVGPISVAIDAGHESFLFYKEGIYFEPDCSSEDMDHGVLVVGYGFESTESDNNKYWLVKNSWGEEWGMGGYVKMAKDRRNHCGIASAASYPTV

| Compound | half-life [1] [min] | IC50 [2] [µM] | IC50 [3] [µM] | clearance [4] [mL/min/kg] | IC50 [5] [µM] |
| --- | --- | --- | --- | --- | --- |
| CC(C)(C)CNc1nc(C#N)ncc1C(=O)NCCc1ccc(OCCn2ccnc2)cc1 | 48 | 0.52 | 0.9 | 462 | 0.003 |
| N#Cc1nccc(NC2CCCCC2)n1 |  |  |  |  | 0.17 |
| CN1CCN(c2ccc(CCNC(=O)c3cnc(C#N)nc3NCC(C)(C)C)cc2)CC1 |  | 3.9 | 3.1 |  | 0.025 |
| N#Cc1cncc(NC2CCCCC2)n1 |  |  |  |  | > 1 |
| CN1CCN(c2cccc(CCNC(=O)c3cnc(C#N)nc3NCC(C)(C)C)c2)CC1 |  | 0.82 | 1.8 |  | 0.011 |
| CN1CCN(c2ccc(CCNC(=O)c3cnc(C#N)nc3NC3CCCCC3)cc2)CC1 |  | 0.45 | 0.48 |  | 0.047 |
| CC(C)(C)CNc1nc(C#N)ncc1C(=O)NCCc1cccc(OCCn2ccnc2)c1 |  | 0.68 | 0.51 |  | 0.003 |
| N#Cc1cccc(NC2CCCCC2)c1 |  |  |  |  | > 1 |
| COc1cccc(CCNC(=O)c2cnc(C#N)nc2NCC(C)(C)C)c1 |  | 1.2 | 0.9 |  | < 0.003 |
| N#Cc1ncc(C(=O)NCCc2ccc(N3CCCC3)cc2)c(NC2CCCCC2)n1 |  | 5.1 | 2.3 |  | 0.75 |
| CN1CCN(Cc2ccc(CCNC(=O)c3cnc(C#N)nc3NCC(C)(C)C)cc2)CC1 |  | 0.33 | 2.5 |  | 0.011 |
| COc1cccc(CCNC(=O)c2cnc(C#N)nc2NC2CCCCC2)c1 |  | 0.31 | 0.23 |  | 0.009 |
| N#Cc1cccc(NC2CCCCC2)n1 |  |  |  |  | 1 |
| COc1ccc(CCNC(=O)c2cnc(C#N)nc2NC2CCCCC2)cc1 |  | 0.17 | 0.7 |  | 0.022 |
| N#Cc1ccnc(NC2CCCCC2)n1 |  |  |  |  | 0.12 |
| N#Cc1ncc(C(=O)NCCc2ccccc2)c(NC2CCCCC2)n1 |  | 1.1 | 0.13 |  | 0.01 |
| COc1ccc(CCNC(=O)c2cnc(C#N)nc2NCC(C)(C)C)cc1OCCn1ccnc1 |  | 0.58 | 2.6 |  | 0.031 |
| CN1CCC(Oc2ccc(CCNC(=O)c3cnc(C#N)nc3NCC(C)(C)C)cc2)CC1 |  | 1.7 | 10 |  | 0.013 |
| CC(C)(C)CNc1nc(C#N)ncc1C(=O)NCCc1ccc(N2CCCC2)cc1 |  | > 10 | > 10 |  | 0.3 |
| COc1ccc(CCNC(=O)c2cnc(C#N)nc2NCC(C)(C)C)cc1 |  | 0.34 | 1.6 |  | < 0.003 |
